pIC50: −log10 of the molar value.
Key:
[1] = tested on: human colon carcinoma HT29; assay: In vitro cytotoxicity, Microculture Tetrazolium Assay, HT29; type: cell-based; settings: HT-29, HT29, 96 hours exposure, read-out: IC50 (concentration of cytotoxic agent which inhibits proliferation of the treated cells by 50%)
Procedure: (§1) The murine leukaemia L1210 and the human colon carcinomas HCT116 and HT29 were used in vitro. The cells are cultured in RPMI 1640 complete culture medium containing 10% foetal calf serum, 2 mM glutamine, 50 units/ml of penicillin, 50 μg/ml of streptomycin and 10 mM Hepes, pH=7.4. The cells are distributed on microplates and are exposed to the cytotoxic compounds for 4 doubling times, that is to say 48 hours (L1210) or 96 hours (HCT116 and HT29). The number of viable cells is then quantified by a […] assay, the Microculture Tetrazolium Assay (J. Carmichael et al., Cancer Res.; 47, 936-942, (1987)). The results are expressed in terms of the IC50 (the concentration of cytotoxic agent which inhibits proliferation of the treated cells by 50%).

murine leukaemia L1210 = assay: In vitro cytotoxicity, Microculture Tetrazolium Assay, L1210; type: cell-based; settings: Mus musculus; L1210, 48 hours exposure; read-out: IC50 (concentration of cytotoxic agent which inhibits proliferation of the treated cells by 50%)
Procedure: as §1

Compound | pIC50 [1] | pIC50 (murine leukaemia L1210)
CCC1(O)C(=O)Cc2c1cc1n(c2=O)Cc2c-1nc1cc3c(cc1c2-c1ccc(C)cc1)OCO3 (stereo not drawn) [Example 1, 7-Ethyl-7-hydroxy-2,3-methylenedioxy-13-(4-methylphenyl)-9,12-dihydro-7H-cyclopenta[6,7]indolizino[1,2-b]quinoline-8,10-dione] | 8.49 | –
CCC1(O)C(=O)Cc2c1cc1n(c2=O)Cc2c-1nc1cc3c(cc1c2-c1ccc(N(C)C)cc1)OCO3 (stereo not drawn) [Example 6, 7-Ethyl-2,3-methylenedioxy-7-hydroxy-13-[4-(dimethylamino)phenyl]-9,12-dihydro-7H-cyclopenta[6,7]indolizino[1,2-b]quinoline-8,10-dione] | 8.33 | 7.98

Reference: US20100168149A1, “Camptothecin Analogue Compounds, a Process for Their Preparation and Pharmaceutical Compositions Containing Them” (priority 2005, published 2010)
